Where a SMILES comes first, the peptide text is derived from it.
System: drug-resistant Mycobacterium tuberculosis
Details: 5 micrograms per ml

SMILES: CC(C)C[C@H](NC(=O)CNC(=O)[C@H](CCC(=O)O)NC(=O)CNC(=O)[C@H](C)N)C(=O)N[C@@H](CC(N)=O)C(=O)N[C@@H](CO)C(=O)N[C@@H](CCC(N)=O)C(=O)N[C@@H](Cc1ccccc1)C(=O)N[C@@H](Cc1c[nH]c2ccccc12)C(=O)N[C@@H](CO)C(=O)N[C@@H](CC(C)C)C(=O)N[C@@H](C)C(=O)N[C@@H](C)C(=O)N1CCC[C@H]1C(=O)N[C@@H](CCC(N)=O)C(=O)N[C@@H](CCCNC(=N)N)C(=O)N[C@@H](Cc1ccccc1)C(N)=O [Neuropeptide AF, Ala-Gly-Glu-Gly-Leu-Asn-Ser-Gln-Phe-Trp-Ser-Leu-Ala-Ala-Pro-Gln-Arg-Phe-NH2] (H-AGEGLNSQFWSLAAPQRF-NH2)
- % inhibition: 0.0%

Reference: US20100204130A1, “USE OF HUMAN NEUROPEPTIDE AS A THERAPEUTIC AGENT” (priority 2007, published 2010)
